Measured values published in a melting point compilation (Tetko et al.; mined from patent text by program, amines drawn as free bases though some values may be those of a salt).

Row | SMILES | melting point [°C]
1 | CC1=NN(c2ccccc2O)C(=O)C1 | 212 to 214
2 | CSc1nnc(-c2ccnc(Nc3cccc(C(F)(F)F)c3)c2)o1 | 189 to 190
3 | CCCCCNS(=O)(=O)NC(=O)OCc1ccccc1 | 142 to 143
4 | O=C1CC=C2c3ccc(Cl)cc3CCC2N1 (configuration not stated) | 241 to 243
5 | COc1ccc(CC#N)c2c1OC(C)(C)O2 | 58 to 59
6 | CCOC(=O)C=CC=Cc1ccc([N+](=O)[O-])cc1 | 150 to 152
7 | O=C(c1ccccc1CBr)c1ccc(Cl)cc1CBr | 152 to 153
8 | CN(C)C=CC(=O)c1cc(Cl)cc(Cl)c1 | 100
9 | CCCc1nc(Nc2cccc(N(C)C)c2)nc(NC2CCN(S(C)(=O)=O)CC2)n1 | 134 to 136
10 | O=c1ncc(Cl)cn1CC(O)CCl (configuration not stated) | 159 to 162
11 | COc1ccc(C=CC(=O)N[C@@H](Cc2ccccc2)C(=O)CSCc2ccsc2)c(OC)c1 | 142 to 143
12 | Cc1cc(C2=CCN=C(CCCC(O)c3ccc(F)cc3)C2)on1 (configuration not stated) | 116 to 119
13 | CCOC(=O)C(=CC=CN(CC)CCO)S(=O)(=O)c1ccccc1 | 107
14 | CCC(C)(C)C1=C(OC(C)=O)C(=O)c2ccccc2C1=O | 53
15 | Cc1ccc(OCc2ccccc2[N+](=O)[O-])c(C=O)c1 | 124
16 | CCOc1ccc(C=CC(=O)N2CCc3c([nH]c4ccccc34)C2c2ccc3c(c2)OCO3)cc1 (configuration not stated) | 199 to 200
17 | Cc1ncsc1C(C)(O)c1ccccc1 (configuration not stated) | 128 to 130
18 | CCOC(=O)[C@H](Cc1ccc([N+](=O)[O-])cc1I)NC(=O)OCc1ccccc1 | 85 to 87
19 | CC1CN(c2ccc(Cl)cc2)N=C1NC(=O)C(F)(F)F (configuration not stated) | 181 to 183
20 | CC(=O)NC1Cc2ccc(OC(=O)CCl)cc2C1 (configuration not stated) | 106 to 108
21 | CCCCCNCc1ccc(-c2ccccc2S(=O)(=O)NC(C)(C)C)cc1 | 69 to 70
22 | NCc1ccc(-c2csc(N)n2)s1 | 189
23 | CC(=O)Nc1ccccc1CC1NC(=O)NC1=O (configuration not stated) | 200 to 202
24 | CCC(=O)c1ccc(-c2ccc(=O)[nH]n2)cc1 | 202 to 205
25 | O=C(Nc1nccs1)c1cn(CC2CCCCC2)c2cc(Cl)ccc12 | 181 to 183
26 | COc1ccc(Cl)ccc1=O | 124 to 126

Row | SMILES | melting point [°C]
27 | O=C1CCCN1S(=O)(=O)c1ccc(N2CCOCC2)cc1 | 120 to 122
28 | O=C(O)c1ccc(-c2cnc(-c3ccc(C(F)(F)F)cc3)o2)cc1 | 253 to 254
29 | CC[C@@]12C[C@H](O)[C@](O)(c3c(F)cccc3F)C[C@H]1CCc1cc(OCc3cccnc3C)ccc12 | 80 to 83
30 | CC(C)(C)NCC(O)c1ccc(N)c(C(F)(F)F)c1 (configuration not stated) | 145 to 147
31 | CC12CCC(C1)C1(C)Oc3ccc(C(=O)Oc4ccc(C(=O)OCc5ccccc5)cc4)cc3C21C (configuration not stated) | 131 to 133
32 | O=C1C(=O)N(C2CCCCC2)C(=O)N1c1ccccc1 | 133 to 140
33 | O=c1cc(-c2ccc(OCc3ccccc3)cc2)oc2cc(OCc3ccccc3)cc(OCc3ccccc3)c12 | 60 to 62
34 | NC(=O)NC(CS)Cc1ccccc1 (single isomer, unassigned; (+)) | 118
35 | CCOC(=O)c1c(O)c2cc(C)ccc2[nH]c1=O | 242
36 | CC12CCC(C(=O)O)=CC1=CCC1C2CCC2(C)C(C(=O)CCc3ccccc3)CCC12 (configuration not stated) | 218 to 220
37 | CCOC(=O)c1cc2ccc(C#N)cc2[nH]1 | 176
38 | C[C@@H](CCC(=O)N[C@@H](Cc1ccccc1)C(=O)CSCc1ccco1)CNC(=O)COc1ccccc1 | 91 to 95
39 | Cc1noc([C@@H](Cc2ccccc2)NC(=O)[C@@H](Cc2ccc3ccccc3c2)NC(=O)C2CCN(C(=O)OC(C)(C)C)CC2)n1 | 152 to 155
40 | CCCOc1ccc(C(O)CN2CCOCC2)cc1-c1nc2c(CCC)nn(C)c2c(=O)[nH]1 (configuration not stated) | 104 to 105
41 | CCc1noc(-c2cn(-c3ccc4c(c3)OCO4)cn2)n1 | 173 to 174
42 | CCCN(CCC)C1Cc2c(-c3ncco3)ccc3c2C(C1)CN3C(=O)c1ccccc1 (single isomer, unassigned; (-)) | 103 to 104
43 | CC(=O)C1=C(O)C(C(=O)C=Cc2ccc(C)cc2)C(=O)OC1=O (configuration not stated) | 188 to 190
44 | CCOC(=O)CN1CCc2cc3c(cc2CC1)OCO3 | 89 to 90
45 | CCN1CCC(C2CCN(C(=O)OCc3ccccc3)CC2)CC1 | 93 to 96
46 | C[C@@H](Cc1c2n(c3ccc(O)cc13)CCC2)NC(=O)OC(C)(C)C | 135 to 136
47 | Cc1ccccc1C(=NO)C(=O)OC(C)C | 77 to 78
48 | O=c1c2ccc([N+](=O)[O-])cc2nc(C(S)c2ncnc3[nH]cnc23)n1-c1ccccc1Cl (configuration not stated) | 218
49 | CCOC(=O)CCc1cc(C(=O)CCCC(=O)O)ccc1OC | 124 to 126
50 | CN1CCC(P(=O)(O)O)(P(=O)(O)O)N=C1N | 308
51 | COc1ccc(Br)cc1CC1CCCn2c1nc(-c1ccncn1)cc2=O (racemic) | 178 to 180
52 | O=C(O)C(Cc1ccccc1)Nc1cc(-c2ccc(Cc3ccccc3)cc2)ncn1 (configuration not stated) | 116 to 118

Row | SMILES | melting point [°C]
53 | CC(C)(C)c1ccc(Cn2cc(C(=O)C(=O)O)c3cc(-c4cccc(Cl)c4)ccc32)cc1 | 138 to 139
54 | O=C(Nc1ccccc1Cl)Oc1ccc2c(c1)N(Cc1ccccc1)CCC2 | 145
55 | CCc1cccc(C)c1N1C(=O)C=CC1=O | 84.5 to 85
56 | COc1ccccc1[C@@]1(O)[C@H](O)CC(c2ccccc2)(c2ccccc2)[C@@H]2CN(C(=O)Cc3c[nH]c4ccccc34)C[C@@H]21 (racemic) | 266
57 | CCOC(=O)c1cnn2c1c(N1CCOCC1)nc1ccccc12 | 142 to 143
58 | C=COC(=O)N=c1sc2cc(OC(F)(F)F)ccc2n1CCO | 190
59 | O=C(CCc1ccc2ccccc2c1)CC(=O)CCc1ccc2ccccc2c1 | 123 to 125
60 | CN1C(=O)CC[C@]2(C)c3ccc(Oc4ccc5ccccc5n4)cc3CC[C@@H]12 | 172 to 174
61 | CN1C(=S)N(c2ccc(C#N)c(C(F)(F)F)c2)C(=N)C12CCCC2 | 165 to 166
62 | Cc1ccc(CN2CCN(C3=NC4(C=CC(=O)C=C4)C(c4ccccc4)=C3)CC2)cc1 | 135
63 | CCc1oc(-c2ccc(S(C)(=O)=O)cc2)c(Oc2ccc(F)cc2F)c(=O)c1C | 200
64 | COc1ccc(C(=O)Nc2c(Cl)cncc2Cl)c2c1OCC2CC(=O)O (configuration not stated) | 259 to 263
65 | Cc1ccc(-c2nn(Cc3ccccc3)c(N)c2C#N)cc1 | 162 to 163
66 | N#Cc1ccc(-c2ccco2)cn1 | 115 to 116
67 | N#CCc1ccc(N)c(Cl)c1 | 77
68 | CC(NC(=O)C(C)(Cc1c[nH]c2ccccc12)NCc1cc2ccccc2o1)c1ccn(C)c1 (configuration not stated) | 53 to 57
69 | FC(F)(F)c1cccc2c(-c3ccccc3)c(Oc3ccccc3)cnc12 | 153 to 155
70 | CN1CC(C#N)C(=O)c2cc3cc(F)c(F)cc3nc21 (configuration not stated) | 144
71 | Nc1nc(Cl)cc(CCl)n1 | 126 to 128
72 | Cc1ccc(-c2cccc(C(=O)O)c2)cc1 | 182 to 187
73 | CC(=O)c1ccc2c(c1)CCC(=O)CO2 | 80 to 82
74 | CCOc1ccc(C2(c3ccc(OC)cc3)CC2(Cl)Cl)cc1 (configuration not stated) | 114 to 117
75 | O=C(C=C1CC(C(=O)O)Nc2cc(Cl)ccc21)Nc1ccccc1 (racemic) | 118 to 120
76 | CN1C(=O)CSC=C1c1ccccc1 | 95 to 97
77 | CSP(=S)(C1CCCCC1)C1CCCCC1 | 75 to 75.5
78 | CCN(CC)C(=O)c1cc(-c2ccccc2)ccc1OC | 85 to 87

Row | SMILES | melting point [°C]
79 | CN(C)CCCOc1ccccc1C=C1CCc2ccccc2C1=O | 67 to 69
80 | CC1Oc2cc(N)c([N+](=O)[O-])cc2O1 (configuration not stated) | 139
81 | O=C1[C@H]2Cc3c([nH]c4ccccc34)[C@@H](c3ccc4c(c3)OCO4)N2C(=O)C2CNCCN12 (some centres not stated) | 226 to 237
82 | CC12CCC(C(=Cc3ccc(C=O)cc3)C1=O)C2(C)C (configuration not stated) | 116
83 | Cc1ccc2c(Cl)cc(S(=O)(=O)F)c(O)c2n1 | 196 to 198
84 | CC(C)COc1ccc(C(=O)N/C(=C\c2ccc(C(F)(F)F)cc2)C(=O)NCCO)cc1 | 207 to 210
85 | COC(=O)C(Oc1ccc(Cl)cc1)c1ccc(S(=O)c2ccc(Cl)cc2)cc1 (configuration not stated) | 134 to 144
86 | CN(C)c1cc(C(O)c2ccccc2)c([N+](=O)[O-])cc1[N+](=O)[O-] (configuration not stated) | 147 to 150
87 | Nc1nc2c(s1)CC(CCN1CCN(c3ccccn3)CC1)CC2 (configuration not stated) | 176 to 190
88 | CN1CCOC(C2=C(C#N)C(c3cccc4nonc34)c3c[nH]nc3N2)C1 (configuration not stated) | 143
89 | CC(C)n1nc(-c2c(-c3ccccc3)nn3ccc(OCc4ccncc4)cc23)ccc1=O | 218 to 220
90 | NC(=O)N1C(=O)C(=C(OC(=O)C=Cc2ccccc2)c2cccs2)c2cc(F)c(Cl)cc21 | 214 to 215
91 | CCOC(=O)c1c2ccc(Cl)cc2c(-c2ccccc2)n1CCNC(=O)OCc1ccccc1 | 102 to 104
92 | O=C(Cc1ccc(O)cc1)OCc1ccccc1 | 70 to 72
93 | COCCNc1nc(N)nc(-c2cc(Cl)ccc2Cl)n1 | 195 to 197
94 | COc1ncc(CS(=O)(=O)CC(=O)O)cc1[N+](=O)[O-] | 183 to 186
95 | c1ccc(C(CCOc2ccc(-c3nnn[nH]3)cc2)(c2ccccc2)c2ccccc2)cc1 | 232 to 233
96 | COc1cccc(-c2n[nH]c(-c3ccccc3CO)n2)c1 | 155 to 156
97 | CCOC(=O)N1CC[C@@H](O)[C@H](c2ccccc2)C1 (relative stereo) | 49.5 to 58
98 | Nc1ncc(CN2CCN(c3cccc(Cl)c3)CC2)c(N)n1 | 222 to 226
99 | O=c1[nH]nc2c3c(cccc13)N=C(CN1CCCN(Cc3ccc(F)cc3)CC1)N2 | 163 to 165
100 | CC(=O)OC1C(NC(=O)Cc2cccc3c2Cc2ccccc2-3)C(CO)OC1n1cnc2c(Cl)ncnc21 (configuration not stated) | 196 to 197
101 | c1ccc(OCCSCc2nnc(-c3ccc(OCCCN4CCCCC4)cc3)o2)cc1 | 65
102 | Nc1cc(C(F)(F)F)cc2nc3c4ccccc4c4ccccc4c3nc12 | 194 to 195
